{"source": "the OPERA property sets (Mansouri et al. 2018)"}
{"units": {"boiling point": "°C", "melting point": "°C"}}
{"molecule": "CCC(C)=C(C)C(C)=O", "boiling point": 158}
{"molecule": "CCC(CC)(CO)CO", "boiling point": 240, "melting point": 61.5}
{"molecule": "Ic1cc(I)cc(I)c1", "melting point": 184}
{"molecule": "Cc1cc(CC(=O)O)n(C)c1C(=O)c1ccc(Cl)cc1", "melting point": 178}
{"molecule": "CCCNCCC", "boiling point": 109, "log10 Henry constant (atm·m³/mol)": -4.29, "log10 Koa": 3.59, "log10 vapour pressure (mmHg)": 1.3, "melting point": -63, "ready biodegradability": "readily biodegradable"}
{"molecule": "OCC(CO)(CBr)CBr", "melting point": 113, "ready biodegradability": "not readily biodegradable"}
{"molecule": "CCC(C1CCCCC1)C1CCCCC1", "boiling point": 284, "melting point": -23.5}
{"molecule": "C[C@@H]1C(=O)OC[C@H]2[C@@H]1CC[C@@H]2C", "melting point": 60.5}
{"molecule": "O=C1c2ccccc2C(=O)N1SC(F)(Cl)Cl", "ready biodegradability": "not readily biodegradable"}
{"molecule": "CCOCCCO", "melting point": 160}
{"molecule": "CCCCOC(=O)COc1ccc(Cl)cc1Cl", "log10 vapour pressure (mmHg)": -4.21}
{"molecule": "COC(=O)c1ccc(C)cc1O", "boiling point": 243, "melting point": 27.5}
{"molecule": "Nc1ccc(C(=O)O)cc1", "log10 Koc (L/kg)": 2.5, "melting point": 188, "ready biodegradability": "readily biodegradable"}
{"molecule": "COc1ccc([C@@H]2CC(=O)c3c(O)cc(O[C@@H]4O[C@H](CO[C@@H]5O[C@@H](C)[C@H](O)[C@@H](O)[C@H]5O)[C@@H](O)[C@H](O)[C@H]4O)cc3O2)cc1O", "melting point": 262}
{"molecule": "Nc1c(F)cc(F)cc1F", "melting point": 35}
{"molecule": "CCCCB(Cl)CCCC", "boiling point": 173}
{"molecule": "CCCCCCCCCc1ccc2ccccc2c1", "boiling point": 372, "melting point": 12}
{"molecule": "NCCN", "boiling point": 117, "log10 Henry constant (atm·m³/mol)": -8.76, "log10 vapour pressure (mmHg)": 1.08, "melting point": 11.1, "ready biodegradability": "readily biodegradable"}
{"molecule": "O=C(O)c1c(Cl)ccc2cc(Cl)cnc12", "melting point": 274}
{"molecule": "CNc1ccc(N)cc1", "boiling point": 258, "melting point": 36}
{"molecule": "C#CC1(OC(N)=O)CCCCC1", "melting point": 96, "ready biodegradability": "readily biodegradable"}
{"molecule": "CCN(CC)C(=O)CSc1ccc(Cl)nn1", "melting point": 97, "ready biodegradability": "not readily biodegradable"}
{"molecule": "CCCCF", "boiling point": 32.5, "log10 vapour pressure (mmHg)": 2.76, "melting point": -134}
{"molecule": "CCCCOC(=O)C(C)Oc1ccc(Oc2ccc(C(F)(F)F)cn2)cc1", "note": "(configuration not stated)", "log10 Koc (L/kg)": 3.62, "log10 vapour pressure (mmHg)": -6.5, "melting point": 9}
{"molecule": "CCCO", "boiling point": 97.2, "log10 Henry constant (atm·m³/mol)": -5.13, "log10 vapour pressure (mmHg)": 1.32, "ready biodegradability": "readily biodegradable"}
{"molecule": "CC(CCc1ccccc1)NC(C)C(O)c1ccc(O)cc1", "note": "(configuration not stated)", "melting point": 112}
{"molecule": "O=C1C2(Cl)C3(Cl)C4(Cl)C(Cl)(Cl)C5(Cl)C3(Cl)C1(Cl)C5(Cl)C24Cl", "note": "(configuration not stated)", "log10 Koc (L/kg)": 4.2, "log10 vapour pressure (mmHg)": -6.65}
{"molecule": "CNC1(c2ccccc2Cl)CCCCC1=O", "note": "(configuration not stated)", "melting point": 92.5}
{"molecule": "CCN(CC)CCNc1ccc(CO)c2sc3ccccc3c(=O)c12", "melting point": 102}
{"molecule": "COc1cc(-c2ccc(N)c(OC)c2)ccc1N", "boiling point": 356, "melting point": 137, "ready biodegradability": "not readily biodegradable"}
{"molecule": "Cc1cc(C)c(O)c(C(C)(C)C)c1", "boiling point": 249, "log10 vapour pressure (mmHg)": -1.35, "melting point": 22.3, "ready biodegradability": "not readily biodegradable"}
{"molecule": "C=C(C)C=CC", "melting point": 75.5}
{"molecule": "C=C[C@@H]1C2=CCOC(=O)C2=CO[C@H]1O[C@@H]1O[C@H](CO)[C@@H](O)[C@H](O)[C@H]1O", "melting point": 191}
{"molecule": "COc1ccc2c3c1O[C@H]1C(=O)CC[C@@]4(O)[C@@H](C2)N(C)CC[C@]314", "melting point": 219}
{"molecule": "CC12CCC(C1)C(C)(C)C2=O", "note": "(configuration not stated)", "log10 vapour pressure (mmHg)": -0.0876, "melting point": 5.37}
{"molecule": "BrCCCCBr", "boiling point": 197, "log10 vapour pressure (mmHg)": -0.211, "melting point": -16.5}
{"molecule": "CCCCCCCCCCCCCCCCCCCCCC1CCCC1", "boiling point": 420, "melting point": 42}
{"molecule": "Cc1cccc2cc3c(ccc4ccccc43)cc12", "melting point": 156}
{"molecule": "Cc1cccc(C)c1NC1=NCCCS1", "melting point": 140}
{"molecule": "Nc1cccc(C(=O)c2cccc(N)c2)c1", "melting point": 174}
{"molecule": "NS(=O)(=O)c1ccc(SCCCCO)c(F)c1", "melting point": 104}
{"molecule": "CC[SiH](CC)CC", "boiling point": 109}
{"molecule": "COc1cc2c(cc1OC)C(CCc1ccc(Cl)cc1)N(C)CC2", "note": "(configuration not stated)", "melting point": 110}
{"molecule": "ClC(C(Cl)(Cl)Cl)C(Cl)(Cl)Cl", "boiling point": 249, "melting point": 11}
{"molecule": "O=Cc1ccc(Oc2ccccc2)cc1", "melting point": 24.5}
{"molecule": "CCOP(=S)(OCC)OP(=S)(OCC)OCC", "log10 vapour pressure (mmHg)": -3.98}
{"molecule": "C[Si](C)(C)O[Si](C)(C)O[Si](C)(C)O[Si](C)(C)O[Si](C)(C)C", "boiling point": 232, "log10 vapour pressure (mmHg)": -0.991, "melting point": -80}
{"molecule": "CC1(OO)CCC2CC1C2(C)C", "note": "(configuration not stated)", "ready biodegradability": "not readily biodegradable"}
{"molecule": "CC1(C)[C@@H]2CC[C@]1(C)[C@H](O)C2", "log10 vapour pressure (mmHg)": -1.3}
{"molecule": "CCCCCCCCOC(C)=O", "boiling point": 210, "melting point": -38.5}
{"molecule": "COc1ccc(N)cc1N", "boiling point": 221, "melting point": 67.5}
{"molecule": "CCCC(C)(C)O", "boiling point": 121, "log10 vapour pressure (mmHg)": 0.934, "melting point": -103}
{"molecule": "O=C(O)/C=C/CCCCCCCCC(=O)O", "melting point": 166}
{"molecule": "O=c1c(I)cn(CC(O)CO)cc1I", "note": "(configuration not stated)", "melting point": 161}
{"molecule": "CCCCCCCC(=O)OC(=O)CCCCCCC", "boiling point": 282, "melting point": -1}
{"molecule": "O=C(OCC1(COC(=O)c2cccnc2)CCCC(COC(=O)c2cccnc2)(COC(=O)c2cccnc2)C1O)c1cccnc1", "melting point": 178}
{"molecule": "O=[N+]([O-])c1ccccc1I", "boiling point": 290, "melting point": 54}
